Measurements reported in publication PMC6152131, “Pharmacokinetic Study of Biotransformation Products from an Anxiolytic Fraction of Tilia americana” (Molecules : A Journal of Synthetic Chemistry and Natural …, 2017).

Assays:
[1] = Stability of flavonoids and biotransformation products in mouse plasma under different handling conditions; assay type: in vitro ADME, mice; details: for Accuracy Bias 0 h / Observed Conc. 0 h / Accuracy Bias 8 h / Observed Conc. 8 h / Accuracy Bias 24 h / Observed Conc. 24 h: room temperature (25 °C); for Observed Conc. 0 h / Observed Conc. 8 h / Observed Conc. 24 h / Observed Conc. Autosampler (4 °C; 8 h) / Observed Conc. Long-term (−70 °C; 1 month): n = 6; for Accuracy Bias Autosampler (4 °C; 8 h) / Accuracy Bias Long-term (−70°C; 1 month) / Observed Conc. Autosampler (4 °C; 8 h) / Observed Conc. Long-term (−70 °C; 1 month): storage stability
Procedure: (§1) Plasma dried pulverized samples were extracted with methanol (HPLC grade, Merck). The extracts were filtered with Teflon membrane dimensions 0.45 μm by 13 mm (Millex®-LCR); 20 μL of each filtered sample was injected into the HPLC equipment. The measurements were performed in a (Waters corporation, Milford, CT, USA) 2695 HPLC with a diode array detector (Waters 2996) and processed with the Empower Pro 1.0 software. A Chromolith Performance® RP-18e 100 × 4.6 mm (Merck KGaA, Darmstadt, Germany) was used. The mobile phase consisted of a mixture of acetonitrile and water with the proportion 55:45 and a flow rate of 1 mL/min. The concentrations of the flavonoids and the biotransformation products were obtained by comparison with a pre-built calibration curve at λ = 220 nm.
[…] The investigation enclosed here expected manipulation conditions during all the sample storage and process periods, which included the stability data from the freeze/thaw, bench-top, autosampler, and long–term stability tests.
For all stability studies, fresh QC samples were evaluated by using a freshly prepared standard curve for the measurements. The concentrations obtained from all the stability studies were compared with the fresh QC samples, and the percentage concentration deviation was calculated. The analytes were considered stable in the mouse plasma when the concentration difference between the freshly prepared samples and the stability samples was less than 15%.

[2] = Plasma concentration after a single oral dose of the anxiolytic fraction (HPLC); assay type: in vivo, ICR mice; details: oral 200 mg/kg anxiolytic fraction, immediately after administration and over 24 h
Procedure: Eleven groups of ten animals each were randomly formed. All animals were orally administered with 200 mg/kg of the active fraction. Animals were anaesthetized with ether, and blood samples were obtained from the retroorbital sinus with a heparinized capillary, each group was examined at different times (0, 5, 10, 15, 30, 60, 120, 240, 480, 720, and 1440 min) after the active fraction was administered. […] Then the plasma samples were frozen and lyophilized. The dry plasma was subsequently used to extract and measure the concentration of the flavonoids and biotransformation products.
as §1
To evaluate the suitability of the assay for the pharmacokinetic studies, 200 mg/kg of the active fraction was orally administered to the animals. Ten animals were used in each group at different times (0, 5, 10, 15, 30, 60, 120, 240, 480, 720, and 1440 min). Pharmacokinetic calculations were performed using the observed data. All data was subsequently processed using the PKSolver add-in program for Microsoft Excel written in Visual Basic for Applications. All values obtained were expressed in mean ± standard deviation.

[3] = system: intestinal epithelial cells; design: method as in PMID 25761590; details: compared with the aglycone kaempherol; cited from earlier work
[4] = high nominal conc. (rutin 7.00; quercetin glucoside, quercitrin, tiliroside 44.37; kaempferol 4.50; m-HPAA, p-HPAA, DOPAC 31.25 µg/mL)
[5] = low nominal conc. (rutin 1.75; quercetin glucoside, quercitrin, tiliroside 11.02; kaempferol 1.12; m-HPAA, p-HPAA, DOPAC 1.95 µg/mL)
[6] = medium nominal conc. (rutin 3.50; quercetin glucoside, quercitrin, tiliroside 22.18; kaempferol 2.24; m-HPAA, p-HPAA, DOPAC 7.81 µg/mL)
[7] = high nominal conc. (7.00; 44.37; 4.50; 31.25 µg/mL)
[8] = low nominal conc. (1.75; 11.02; 1.12; 1.95 µg/mL)
[9] = medium nominal conc. (3.50; 22.18; 2.24; 7.81 µg/mL)

Row | SMILES | Accuracy Bias 0 h ([1]; high nominal conc.) [%] | Observed Conc. 0 h [1, 4] [µg/mL] | Accuracy Bias 0 h ([1]; low nominal conc.) [%] | Observed Conc. 0 h [1, 5] [µg/mL] | Accuracy Bias 0 h ([1]; medium nominal conc.) [%] | Observed Conc. 0 h [1, 6] [µg/mL] | Accuracy Bias 8 h ([1]; high nominal conc.) [%] | Observed Conc. 8 h [1, 7] [µg/mL] | Accuracy Bias 8 h ([1]; low nominal conc.) [%] | Observed Conc. 8 h [1, 8] [µg/mL] | Accuracy Bias 8 h ([1]; medium nominal conc.) [%] | Observed Conc. 8 h [1, 9] [µg/mL] | Accuracy Bias 24 h ([1]; high nominal conc.) [%] | Accuracy Bias 24 h ([1]; low nominal conc.) [%] | Observed Conc. 24 h [1, 8] [µg/mL] | Accuracy Bias 24 h ([1]; medium nominal conc.) [%] | Observed Conc. 24 h [1, 9] [µg/mL] | Accuracy Bias Autosampler (4 °C; 8 h) ([1]; high nominal conc.) [%] | Observed Conc. Autosampler (4 °C; 8 h) [1, 7] [µg/mL] | Observed Conc. Long-term (−70 °C; 1 month) [1, 7] [µg/mL] | also measured
1 | O=c1c(O)c(-c2ccc(O)cc2)oc2cc(O)cc(O)c12 [Kaempferol, kaempferol] | −4.64 | 4.45 ± 0.41 | −3.29 | 1.16 ± 0.099 | 0.53 | 2.24 ± 0.20 | −1.74 | 4.32 ± 0.21 | −7.28 | 1.21 ± 0.83 | 4.60 | 2.15 ± 0.19 | 1.77 | −2.28 | 1.15 ± 0.098 | −8.12 | 2.42 ± 0.22 | 1.24 | 4.19 ± 0.37 | 4.35 ± 0.39 | Accuracy Bias Long-term (−70°C; 1 month) ([1]; high nominal conc.): −2.47%; Accuracy Bias Autosampler (4 °C; 8 h) ([1]; low nominal conc.): −7.77%; Accuracy Bias Long-term (−70°C; 1 month) ([1]; low nominal conc.): −2.77%; Observed Conc. Autosampler (4 °C; 8 h) [1, 8]: 1.21 ± 0.07 µg/mL; Observed Conc. Long-term (−70 °C; 1 month) [1, 8]: 1.15 ± 0.10 µg/mL; Accuracy Bias Autosampler (4 °C; 8 h) ([1]; medium nominal conc.): 0.50%; Accuracy Bias Long-term (−70°C; 1 month) ([1]; medium nominal conc.): 4.13%; Observed Conc. Autosampler (4 °C; 8 h) [1, 9]: 2.24 ± 0.20 µg/mL; Observed Conc. Long-term (−70 °C; 1 month) [1, 9]: 2.15 ± 0.19 µg/mL; flavonoids found in the plasma after oral administration [2]: not found
2 | O=c1c(O[C@@H]2O[C@H](CO)[C@@H](O)[C@H](O)[C@H]2O)c(-c2ccc(O)c(O)c2)oc2cc(O)cc(O)c12 [Quercetin glucoside, quercetin glucoside] | 2.86 | 43.10 ± 2.20 | −1.24 | 11.16 ± 0.27 | 5.94 | 20.86 ± 1.35 | 4.28 | 42.48 ± 1.06 | 1.62 | 10.84 ± 0.67 | 6.02 | 20.84 ± 1.24 | 6.76 | −2.98 | 11.35 ± 0.61 | 7.83 | 20.44 ± 1.65 | −1.82 | 43.30 ± 2.02 | 41.60 ± 2.26 | Observed Conc. 24 h [1, 7]: 41.37 ± 1.17 µg/mL; Accuracy Bias Long-term (−70°C; 1 month) ([1]; high nominal conc.): −3.52%; Accuracy Bias Autosampler (4 °C; 8 h) ([1]; low nominal conc.): 2.40%; Accuracy Bias Long-term (−70°C; 1 month) ([1]; low nominal conc.): 6.22%; Observed Conc. Autosampler (4 °C; 8 h) [1, 8]: 11.22 ± 0.59 µg/mL; Observed Conc. Long-term (−70 °C; 1 month) [1, 8]: 11.41 ± 0.71 µg/mL; Accuracy Bias Autosampler (4 °C; 8 h) ([1]; medium nominal conc.): 5.48%; Accuracy Bias Long-term (−70°C; 1 month) ([1]; medium nominal conc.): 7.26%; Observed Conc. Autosampler (4 °C; 8 h) [1, 9]: 20.96 ± 1.31 µg/mL; Observed Conc. Long-term (−70 °C; 1 month) [1, 9]: 20.57 ± 2.06 µg/mL; flavonoids found in the plasma after oral administration [2]: not found
3 | C[C@@H]1O[C@@H](Oc2c(-c3ccc(O)c(O)c3)oc3cc(O)cc(O)c3c2=O)[C@H](O)[C@H](O)[C@H]1O [Quercitrin, quercitrin] | 0.56 | 44.12 ± 2.82 | −2.26 | 11.27 ± 0.75 | −3.39 | 22.94 ± 1.87 | −1.33 | 44.96 ± 1.84 | −4.83 | 11.56 ± 0.78 | −2.11 | 22.65 ± 1.85 | 1.05 | 0.30 | 10.99 ± 0.72 | −4.15 | 23.11 ± 1.89 | −0.17 | 44.44 ± 4.52 | 44.17 ± 2.95 | Observed Conc. 24 h [1, 7]: 43.90 ± 1.61 µg/mL; Accuracy Bias Autosampler (4 °C; 8 h) ([1]; low nominal conc.): −5.47%; Observed Conc. Autosampler (4 °C; 8 h) [1, 8]: 11.62 ± 1.02 µg/mL; Observed Conc. Long-term (−70 °C; 1 month) [1, 8]: 11.64 ± 0.99 µg/mL; Accuracy Bias Autosampler (4 °C; 8 h) ([1]; medium nominal conc.): −2.73%; Observed Conc. Autosampler (4 °C; 8 h) [1, 9]: 22.79 ± 2.26 µg/mL; Observed Conc. Long-term (−70 °C; 1 month) [1, 9]: 22.49 ± 1.66 µg/mL; flavonoids found in the plasma after oral administration [2]: not found
4 | O=C(/C=C/c1ccc(O)cc1)OC[C@H]1O[C@@H](Oc2c(-c3ccc(O)cc3)oc3cc(O)cc(O)c3c2=O)[C@H](O)[C@@H](O)[C@@H]1O [Tiliroside, tiliroside] | 1.35 | 43.77 ± 4.28 | 4.59 | 10.54 ± 0.74 | 3.36 | 21.44 ± 2.13 | −0.64 | 44.65 ± 4.37 | 6.26 | 10.33 ± 0.61 | −2.95 | 22.84 ± 2.57 | 7.03 | 4.48 | 10.53 ± 0.79 | 7.14 | 20.60 ± 2.05 | 3.66 | 42.74 ± 3.40 | 44.26 ± 2.49 | Observed Conc. 24 h [1, 7]: 41.25 ± 2.04 µg/mL; Accuracy Bias Long-term (−70°C; 1 month) ([1]; high nominal conc.): 0.24%; Accuracy Bias Autosampler (4 °C; 8 h) ([1]; low nominal conc.): 3.97%; Accuracy Bias Long-term (−70°C; 1 month) ([1]; low nominal conc.): 5.54%; Observed Conc. Autosampler (4 °C; 8 h) [1, 8]: 10.58 ± 0.81 µg/mL; Observed Conc. Long-term (−70 °C; 1 month) [1, 8]: 10.40 ± 0.99 µg/mL; Accuracy Bias Autosampler (4 °C; 8 h) ([1]; medium nominal conc.): −3.45%; Accuracy Bias Long-term (−70°C; 1 month) ([1]; medium nominal conc.): 3.42%; Observed Conc. Autosampler (4 °C; 8 h) [1, 9]: 22.94 ± 2.25 µg/mL; Observed Conc. Long-term (−70 °C; 1 month) [1, 9]: 21.41 ± 1.82 µg/mL; flavonoids found in the plasma after oral administration [2]: not found; permeability to the intestinal epithelial cells [3]: completely impermeable
